Measurements reported in PMC4734340, “Structural and functional attributes of malaria parasite diadenosine tetraphosphate hydrolase” (Scientific Reports, 2016).

Molecular target: T1, P. falciparum diadenosine tetraphosphate (Ap4A) hydrolase (PfAp4AH) (Plasmodium falciparum, UniProt C0H4F3)
T1 construct: gene PF3D7_0520600; Full length PfAp4AH, recombinant from E. coli, His-tag removed
T1 sequence (C0H4F3 1-152): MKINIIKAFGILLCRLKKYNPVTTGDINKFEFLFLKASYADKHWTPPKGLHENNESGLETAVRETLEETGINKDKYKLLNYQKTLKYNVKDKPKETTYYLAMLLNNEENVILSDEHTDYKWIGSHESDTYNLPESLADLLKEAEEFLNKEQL
Assay: ITC at […] °C (n = […]); also enzyme inhibition IC50 […] and thermal shift (negative ΔTm)
Type: binding

Cc1ccc(C(=O)Nc2ccc(S(=O)(=O)O)c3cc(S(=O)(=O)O)cc(S(=O)(=O)O)c23)cc1NC(=O)c1cccc(NC(=O)Nc2cccc(C(=O)Nc3cc(C(=O)Nc4ccc(S(=O)(=O)O)c5cc(S(=O)(=O)O)cc(S(=O)(=O)O)c45)ccc3C)c2)c1 [suramin]
Kd: 18.1 ± 1.1 µM
